Measurements published in patent US7223751B2, “Sulfonamide derivatives, intermediate thereof, its preparation methods, and pharmaceutical composition comprising the same” (Kolon Ind. Inc., priority 2001, dated 2007).

How the values were obtained:
[1] = molecular target: T1, MMP-1 (Homo sapiens, UniProt P03956); test: MMP inhibiting activity, fluorescence assay; type: biochemical; conditions: read-out: Enzyme inhibiting constant IC50 MMP-1
T1 sequence (P03956 100-469): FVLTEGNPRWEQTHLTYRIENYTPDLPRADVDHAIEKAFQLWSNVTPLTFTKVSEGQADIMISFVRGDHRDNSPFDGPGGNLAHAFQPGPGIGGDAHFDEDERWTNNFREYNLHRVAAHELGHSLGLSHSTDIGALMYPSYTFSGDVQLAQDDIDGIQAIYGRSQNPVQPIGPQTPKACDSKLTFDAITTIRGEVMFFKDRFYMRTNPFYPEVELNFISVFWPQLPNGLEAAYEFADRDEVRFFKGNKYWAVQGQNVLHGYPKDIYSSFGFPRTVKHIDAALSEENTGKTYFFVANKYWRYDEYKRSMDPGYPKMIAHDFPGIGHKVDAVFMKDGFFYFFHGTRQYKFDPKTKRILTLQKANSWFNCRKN
Procedure: (§1) Inhibitory activities of all the enzymes were measured similarly to the MMP-2 activity measuring method shown below. Prior to measuring, proMMP-2 was treated with 1 mM p-aminophenyl mercuricacetate at 37° C. for 45 minutes to activate it. The ProMMP-9 was activated to an enzyme with MMP-3, and stored at −80° C. until used.
(§2) MMP activities were measured by fluorescence assay by changing a microtiter plate formate according to the reported method (Knight, C. G., Willenbrock, F., Murphy, G. A., FEBS Lett. 1992, 296, 263-266). On a dynatech MicroFLUOR plate, a buffer solution comprising 50 Mm Tris-HCl pH 7.5, 10 mM CaCl2, 0.15 M NaCl, 0.05% Brij, and 1-8 μM of a substrate (Mca-Pro-Leu-Gly-Leu-Dpa-Ala-Arg-NH2), and various concentrations of inhibitors were introduced, and it was reacted with activated enzymes at 37° C. for 20-30 minutes. Reaction was terminated by putting the reactant in 50 mM EDTA, and then fluorescence was measured with a spectrofluorometer attached to a microplate reader (λex 328 nm, λ em 393 nm). The inhibiting activity degree was indicated by an IC50 value, which is a concentration inhibiting activity by 50% compared to the control.

[2] = molecular target: MMP-13 (Homo sapiens, UniProt P45452); test: MMP inhibiting activity, fluorescence assay; type: biochemical; conditions: read-out: Enzyme inhibiting constant IC50 MMP-13
Procedure: as §1, §2

[3] = molecular target: MMP-14 (Homo sapiens, UniProt P50281); test: MMP inhibiting activity, fluorescence assay; type: biochemical; conditions: read-out: Enzyme inhibiting constant IC50 MMP-14
Procedure: as §1, §2

[4] = molecular target: T2, MMP-2 (Homo sapiens, UniProt P08253); test: MMP inhibiting activity, fluorescence assay; type: biochemical; conditions: read-out: Enzyme inhibiting constant IC50 MMP-2
T2 sequence (P08253 110-660): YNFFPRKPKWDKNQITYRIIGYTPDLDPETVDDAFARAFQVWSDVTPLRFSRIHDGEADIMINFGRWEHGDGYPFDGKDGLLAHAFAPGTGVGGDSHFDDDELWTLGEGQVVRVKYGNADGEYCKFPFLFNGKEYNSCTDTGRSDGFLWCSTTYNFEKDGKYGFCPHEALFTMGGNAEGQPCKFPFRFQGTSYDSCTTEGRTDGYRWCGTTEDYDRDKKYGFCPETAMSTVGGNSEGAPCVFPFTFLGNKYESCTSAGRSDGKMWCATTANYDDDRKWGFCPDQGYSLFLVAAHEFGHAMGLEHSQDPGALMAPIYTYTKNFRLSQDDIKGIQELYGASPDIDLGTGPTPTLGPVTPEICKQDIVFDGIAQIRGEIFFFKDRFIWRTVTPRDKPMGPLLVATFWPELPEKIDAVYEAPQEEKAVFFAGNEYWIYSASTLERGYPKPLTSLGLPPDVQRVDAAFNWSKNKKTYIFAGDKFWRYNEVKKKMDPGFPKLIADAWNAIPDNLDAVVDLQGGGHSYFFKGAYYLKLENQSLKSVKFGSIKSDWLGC
Procedure: as §1, §2

[5] = molecular target: MMP-9 (Homo sapiens, UniProt P14780); test: MMP inhibiting activity, fluorescence assay; type: biochemical; conditions: read-out: Enzyme inhibiting constant IC50 MMP-9
Procedure: as §1, §2

[6] = tested on: HUVEC (human umbilical vein endothelial cell) cells; test: Tube formation activity on matrigel; type: cell-based; set-up: key: −: control; ±: tube almost resembles control; +: inhibition; ++: significant inhibition; +++: complete inhibition; conditions: 16-24 hours
Procedure: In a culture flask previously coated with gelatin, HUVEC (human umbilical vein endothelial cell) cells cultured with a M199 medium (containing 20% FBS, 3 ng/ml bFGF, 100 μg/ml heparin) were treated with trypsin/EDTA, and then number of cells are counted so that number of cells may be 2×10^4 cells/well in a 96-well plate previously coated with matrigel. Samples were then added and cultured in a CO2 culture medium at 37° C. for 16-24 hours.

Chain of MMP-9 (P14780 107-707 limits assumed, species assumed): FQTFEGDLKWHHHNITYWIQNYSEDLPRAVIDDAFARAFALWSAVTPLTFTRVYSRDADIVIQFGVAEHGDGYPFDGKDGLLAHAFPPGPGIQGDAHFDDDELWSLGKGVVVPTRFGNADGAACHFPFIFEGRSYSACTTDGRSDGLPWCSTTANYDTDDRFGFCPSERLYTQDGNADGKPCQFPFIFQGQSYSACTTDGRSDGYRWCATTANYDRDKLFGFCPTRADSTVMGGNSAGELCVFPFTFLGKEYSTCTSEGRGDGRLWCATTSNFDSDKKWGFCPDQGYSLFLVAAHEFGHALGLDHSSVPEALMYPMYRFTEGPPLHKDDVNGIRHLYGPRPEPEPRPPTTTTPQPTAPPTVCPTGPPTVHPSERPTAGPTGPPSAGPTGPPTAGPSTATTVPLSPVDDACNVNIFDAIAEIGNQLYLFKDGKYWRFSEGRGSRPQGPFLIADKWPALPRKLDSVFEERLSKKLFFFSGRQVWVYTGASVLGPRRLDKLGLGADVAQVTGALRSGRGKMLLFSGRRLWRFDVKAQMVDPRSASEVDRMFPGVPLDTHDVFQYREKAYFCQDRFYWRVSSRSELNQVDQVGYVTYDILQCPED

Compound	IC50 [1] [nM]	IC50 [2] [nM]	IC50 [3] [nM]	IC50 [4] [nM]	IC50 [5] [nM]	Tube Formation ([6]; concentration 5 μM)	Tube Formation ([6]; concentration 50 μM)	Tube Formation ([6]; concentration 100 μM)	Tube Formation ([6]; concentration 0.5 μM)
4-Benzyl-1-(4-methoxy-benzenesulfonyl)-5-oxo-piperazine-2-hydroxamate [Example 7]	52	18	36	7	25	±	+		
COc1ccc(S(=O)(=O)N2CC(=O)NCC2C(=O)NO)cc1 (stereo not drawn) [Example 5, 1-(4-Methoxy-benzenesulfonyl)-5-oxo-piperazine-2-hydroxamate]			28	4	12.4	±	+	++	
CCCCCCCCN1CC(C(=O)NO)N(S(=O)(=O)c2ccc(-c3ccc(Br)cc3)cc2)CC1=O (stereo not drawn) [Example 32, 1-(4′-Bromo-biphenyl-4-sulfonyl)-4-octyl-5-oxo-piperazine-2-hydroxamate]	16	7		2	1.3	++	+++	+++	
CCCCCCCCN1CC(C(=O)O)N(S(=O)(=O)c2ccc(NC(=O)c3ccc(Cl)cc3)cc2)CC1=O (stereo not drawn) [Example 60, 1-[4-(4-chloro-benzoylamino)-benzenesulfonyl]-4-octyl-5-oxo-piperazine-2-carboxylic acid]	18	24		3	3.2	++	++		+
